Here are results for nine molecules from PMC7998250, “Temperate Zone Plant Natural Products—A Novel Resource for Activity against Tropical Parasitic Diseases” (Pharmaceuticals, 2021).

Where two headings read alike, the source gives them in different places.

The subject of one assay is P. falciparum Dd2Luc. Description: Concentration-response EC50, P. falciparum Dd2Luc. As to conditions: 48 h. The format is cell-based, Plasmodium falciparum.
The subject of another assay is P. falciparum 3D7. Description: Concentration-response EC50, P. falciparum 3D7. Format: cell-based. The following applies: Plasmodium falciparum. The text has this:
This is not surprising as the rate of kill is a result of the mechanism of cell death and, given their structural similarity, these three bisobolane sesquiterpene glycosides likely share the same target(s), albeit with some differences in affinity. The rate of kill, relatively, falls between that of atovaquone and dihydroartemisinin and is more similar to that of chloroquine.

The test system of the next assay is T. evansi. As to the kind of experiment: Concentration-response EC50, T. evansi. The format is cell-based. As to conditions: Trypanosoma evansi, 48 h, read-out: T. evansi EC50.
The test system of assay [1] is L. donovani axenic amastigotes. Description: Concentration-response EC50, L. donovani axenic amastigotes. The format is cell-based. As to conditions: Leishmania donovani. The text has this:
The four lanosterone-like sterols derived from the Noble Fir Abies procera (700022, 700107, 700136) and the Grand Fir Abies grandis (700240) were the only initial compounds taken forward for L. mexicana due to their nanomolar activity and apparent low cytotoxicity (Figure 3a). […] Understanding the impact of the ring-opened lactone head group in this compound compared to the other three warrants further analysis in exploring their structure-activity relationships. These four sterols were also tested for growth inhibitory activity against L. donovani axenic amastigotes. […] As Leishmania spp. amastigotes typically reside with macrophages, further cytotoxicity assays with these sterols were performed against an activated monocyte cell line (THP-1) (Figure 4b).

The test system of assay [2] is 700022-resistant line of L. mexicana (r22) axenic amastigotes. As to the kind of experiment: EC50 in 700022-resistant L. mexicana (r22) axenic amastigotes. The format is cell-based, Leishmania mexicana. As to conditions: for r22 8 weeks RI (resistance index, EC50 in r22/EC50 in WT): 8 weeks of 700022 selection pressure. The procedure: A 700022-resistant line of L. mexicana (r22) was generated using a previously reported method (Figure S3). […] All leishmanicidal sterols identified were assayed against r22 after 8 weeks of 700022 pressure and cross-resistance was found against all four compounds, each with a similar resistance index of between 4–5 (Figure 6c). Following 28 weeks of selection, the morphology of the r22 promastigotes was compared to that of WT (Figure 6d). […] The body area of both promastigotes and amastigotes was also assessed, noting a small (c 20%) decrease in the body area of r22 parasites compared to WT strains (Figure S3).
Figure 6 Comparison between wildtype and 700022-resistant (r22) L. mexicana cell lines. Log concentration versus normalised (compared to untreated control) growth curves for wildtype (WT) and corresponding 700022-selected (r22) L. mexicana (a) promastigotes and (b) axenic amastigotes. Error bars represent upper and lower limits of the StDev (n = 9). […] The resistance index (EC50 in r22/EC50 in WT) are shown for each compound. (d) Scanning electron micrographs of WT and r22 promastigotes illustrating the shortened flagellum in r22 parasites. (e) Analysis of flagellum length in WT and r22 promastigotes (n = 287 of each strain) reported using a box and whisker plot (boxes represents the 25–75th percent distribution with the mean as a horizontal line, whiskers represent the distribution of all values) with a statistically significant difference (Mann–Whitney U test, p-value < 2.2 × 10^−16). […] Error bars represent upper and lower limits of the StDev (n = 9). […] The resistance index (EC50 in r22/EC50 in WT) are shown for each compound. TEXT PRINTED IN THE PICTURE: (c) 700022: 4.1 | (c) 700107: 4.1 | (c) 700136: 5.3 | (c) 700240: 5.3 | (f) 700022: 42.1 | (f) Milt: 17.9 | (f) Pent: 0.75 | (f) AmpB: 1.22 DOUBTS OF THE COPYIST ABOUT THIS PICTURE: Panels c and f: the numbers printed above the bar pairs have no measure or unit printed with them in the picture.
L. mexicana parasites were grown in increasing concentrations of 700022 in a stepwise manner, as previously described. […] A dose response assay of the newly selected promastigotes was completed as stated above, with the exception of the seeding density of 1 × 10^5 cells/mL. At this point, the drug pressure was increased to the concentration of the new EC50 value.

Where [3] appears, read: Plasmodium falciparum, read-out: P. falciparum Dd2Luc EC50, intraerythrocytic, 48 h.
[4] abbreviates: 3D7, read-out: P. falciparum 3D7 EC50.
Setting [5] is: Leishmania mexicana, read-out: r22 8 weeks EC50, r22 after 8 weeks of 700022 selection pressure.

Excerpt for P. falciparum Dd2Luc: (§1) Initial hits from the parasite panel screen were taken forward in log concentration versus normalised response assays to estimate the half maximal effective concentration (EC50) in hit species as well as the half maximal cytotoxic concentrations (CC50) in the human hepatoma cell line HepG2 as a preliminary test for selectivity. Using CC50/EC50 to define the selectivity index (SI), the selectivity for each compound in a defined species compared to a human cell line was estimated and compared to the EC50 (Figure 3).
(§2) EC50 values were determined by serial two-fold dilution of each compound in 96 well plates. Culture conditions and viability assays were as stated for the initial screen, with some exceptions. L. mexicana and L. donovani axenic amastigotes were seeded at 2 × 10^6 cell/s mL, T. brucei and T. evansi were seeded at 2 × 10^5 cells/mL. For cytotoxicity studies, HepG2 cells were seeded at 1 × 10^5 cells/mL, incubated for 48 h and viability was assessed using the Alamar Blue assay [66, 67]. […] Normalised growth and viability data (compared to untreated controls) were plotted against Log10 concentration to estimate EC50 in GraphPad (Prism v6).
Excerpt for T. evansi: as §1, §2

Regarding `C=C1C(=O)OC2CC(C)C3C(OC)CC(=O)C3(C)C(OC(=O)C(C)CC)C12` (centres unmarked) [Compound 701159], the concentration for a half-maximal effect (EC50) with P. falciparum Dd2Luc (setting [3]) was found to be 4500 nM; in the assay on P. falciparum 3D7 (3D7, intraerythrocytic, read-out: P. falciparum 3D7 EC50), 4600 nM.
With `CC1OC(OC2C(OC(=O)C3CC[C@@H]4[C@H](C3)OC3(CC(OC(=O)/C=C/c5ccccc5)[C@@H](C)CO3)C43CO3)OC(CO)C(O)C2O)C(O)C(O)C1O` (some centres unmarked) [Compound 700042], the half-maximal effective concentration (EC50) in the assay on T. evansi came out at 618 nM; in the assay on P. falciparum Dd2Luc (setting [3]), 280 nM; in the assay with P. falciparum 3D7 (setting [4]), 190 nM.
Turning to `C=C1C(=O)OC2CC(C)C3C=CC(=O)C3(C)C(OC(=O)C(C)CC)C12` (centres unmarked) [Compound 701158], the EC50 in the assay on T. evansi is 244 nM; with P. falciparum Dd2Luc (setting [3]), roughly 1000 nM; in the assay on P. falciparum Dd2Luc (read-out: P. falciparum Dd2Luc EC50, intraerythrocytic), 1600 nM; in the assay on P. falciparum 3D7 (setting [4]) it was 1500 nM.
With `CC1=CC(O)(CC(C)C2(C)CC=C3C4=CCC5C(C)(C)C(O)CCC5(C)C4CCC32C)OC1=O` (centres unmarked) [Compound 700022], the EC50 in assay [1] amounted to 140 nM; in assay [2] (setting [5]), 1000 nM; in assay [2] (Leishmania mexicana, read-out: r22 28 weeks EC50, r22 after 28 weeks of 700022 selection pressure), 10100 nM; in assay [2] (read-out: r22 28 weeks EC50, r22 after 28 weeks of 700022 selection pressure), 10000 nM. For the same molecule, the “r22 8 weeks RI (resistance index, EC50 in r22/EC50 in WT)” value in assay [2] is reported as 4.1.
For the molecule `CC1=CC(O)(CC(C)C2(C)CCC3C4=CCC5C(C)(CCC(O)C5(C)C)C4=CCC32C)OC1=O` (centres unmarked) [Compound 700107], the 50% effective concentration (EC50) in assay [1] was 260 nM; in assay [2] (setting [5]), 1100 nM. Also, in assay [2], the “r22 8 weeks RI (resistance index, EC50 in r22/EC50 in WT)” value stood at 4.1.
`C=C1C(=O)OC2CC(C)C3C=CC(=O)C3(C)C(OC(C)=O)C12` (centres unmarked) [Compound 701155]: the EC50 with T. evansi amounted to 135 nM; in the assay with P. falciparum Dd2Luc (setting [3]), 1600 nM; with P. falciparum 3D7 (setting [4]), 2900 nM.
Take `C=C1C(=O)OC2CC(C)C3C=CC(=O)C3(C)C(OC(=O)C(C)C)C12` (centres unmarked) [Compound 701157]: the EC50 in the assay on T. evansi was 191 nM; with P. falciparum Dd2Luc (setting [3]), 1800 nM; in the assay on P. falciparum 3D7 (setting [4]) it was 2100 nM.
Turning to `C/C(=C/C(=O)CC(C)C1CCC2(C)C3=CCC4C(C)(C)C(=O)CCC4(C)C3CCC12C)C(=O)O` (centres unmarked) [Compound 700240], the EC50 was 340 nM in assay [1] and 2700 nM in assay [2] (setting [5]). Besides, the “r22 8 weeks RI (resistance index, EC50 in r22/EC50 in WT)” value in assay [2] was 5.3.
As to `CC1=CC(O)(CC(C)C2(C)CC=C3C4=CCC5C(C)(C)C(=O)CCC5(C)C4CCC32C)OC1=O` (centres unmarked) [Compound 700136], the EC50 is 160 nM in assay [1] and 1100 nM in assay [2] (setting [5]). Besides, the “r22 8 weeks RI (resistance index, EC50 in r22/EC50 in WT)” value in assay [2] was determined as 5.3.
